Data published in PMC6017705, “Discovery of N-(Naphtho[1,2-b]Furan-5-Yl) Benzenesulfonamides as Novel Selective Inhibitors of Triple-Negative Breast Cancer (TNBC)” (Molecules : A Journal of Synthetic Chemistry and Natural …, 2018).
“Also recorded” adds a separate entry of the source.

Legend:
BT-20 = assay: Cell viability assay (CCK-8), BT-20; assay type: cell-based; conditions: Homo sapiens, TNBC cell line, CCK-8, 72 h, 0.156 to 40 μM
Method: (§1) Four human TNBC cell lines (MDA-MB-231, MDA-MB-453, SUM-159, and BT-20), a non-TNBC breast cancer cell line (MCF-7) and a normal mammary epithelial cell line (MCF-10A) were cultured with DMEM (phenol free) supplemented with 2.5% CS-FBS and 1% L-Glu. 1.2 × 10^3 of cells were seeded into 384-well microplates and maintained for 24 h in an incubator at 37 °C in a 5% CO2, saturated humidified atmosphere. Different compounds were added into cells with 9 concentrations from 0.156 to 40 μM for 72 h. […] Then CCK-8 solution was added into cells and incubated for another 4 h. Absorbance was measured with a Microplate Reader at 450/600 nm. The IC50 values of the compounds on TNBC cell lines were derived using GraphPad Prism 5.0 (GraphPad Software, Inc., La Jolla, CA, USA).

MDA-MB-453 = assay: Cell viability assay (CCK-8), MDA-MB-453; assay type: cell-based; conditions: Homo sapiens, TNBC cell line, CCK-8, 72 h, 0.156 to 40 μM
Method: as §1

MDA-MB-231 = assay: Cell viability assay (CCK-8), MDA-MB-231; assay type: cell-based, human; conditions: for IC50: TNBC cell line, CCK-8, 72 h, 0.156 to 40 μM; for inhibition at 5 µg/mL: MDA-MB-231
Method: as §1, with “Different compounds were added into cells with 9 concentrations from 0.156 to 40 μM for 72 h.” left out

SUM-159 = assay: Cell viability assay (CCK-8), SUM-159; assay type: cell-based, human; conditions: for IC50: TNBC cell line, CCK-8, 72 h, 0.156 to 40 μM; for inhibition at 5 µg/mL: SUM159
Method: as §1, with “Different compounds were added into cells with 9 concentrations from 0.156 to 40 μM for 72 h.” left out

MCF-7 = assay: Cell viability assay (CCK-8), MCF-7; assay type: cell-based, human; conditions: for IC50 / inhibition at 5 µg/mL: Homo sapiens; for IC50: MCF7, 72 h, non-TNBC breast cancer cell line, CCK-8, 72 h; for inhibition at 5 µg/mL: MCF7
Method: as §1, with “Different compounds were added into cells with 9 concentrations from 0.156 to 40 μM for 72 h.” left out

TNBC cell lines = assay: Cell viability assay, different TNBC cell lines; assay type: cell-based, human; conditions: for IC50: Homo sapiens
Method: as §1

MCF-10A = assay: Cell viability assay (CCK-8), MCF-10A; assay type: cell-based, human; conditions: for IC50: Homo sapiens, MCF-10A, normal mammary epithelial cell line, CCK-8, 72 h
Method: as §1

MDA-MB-436 = assay: Cell viability assay, MDA-MB-436; assay type: cell-based; conditions: Homo sapiens, TNBC cell line
Method: In addition to three TNBC cell lines (MDA-MB-231, MDA-MB-436, and SUM-159) and the breast cancer cell line MCF-7, we employed the normal mammary epithelial cell line MCF-10A, which was used for testing the compounds for their effects on normal breast cells (Table 6).
as §1

[1] = test system: signal transducer and activator of transcription 3 (STAT3); set-up: method as in ref 21, 22 = [21]; 21. Tweardy D.J. Huang X. Kasembeli M.M. Stat3 Inhibitors W.O. Patent 2009149192 A1 10 12 2009 || [22]; 22. Tweardy D.J. Kasembeli M.M. Xu M.X. Eckols T.K. Methods and Compositions for Treatment of Muscle Wasting, Muscle Weakness, and/or Cachexia Using Inhibitors of Stat3 W.O. Patent 2015010107 A1 22 1; conditions: antitumor agent; cited from earlier work
[2] = test system: heme detoxification protein (HDP); set-up: method as in ref 20 = [20]; 20. Rathore D. Jani D. Nagarkatti R. HDP (Heme Detoxification Protein) Involved in Hemozoin Formation in Plasmodium and Theileria as an Anti-protozoal Target, and High-throughput Screening for Antimal; conditions: cited from earlier work

| SMILES | IC50 (BT-20) | IC50 (MDA-MB-453) | IC50 (MDA-MB-231; Homo sapiens, MDA-MB-231, 72 h) | IC50 (SUM-159; Homo sapiens, SUM159, 72 h) | IC50 (MCF-7) | fold reduced inhibitory activity compared to the ester compound (2-5) (TNBC cell lines; both TNBC cell lines (MDA-MB-231, SUM-159)) | IC50 (MDA-MB-231) | IC50 (SUM-159) | inhibitory effect on MCF-10A (in words) (MCF-10A) | IC50 (MCF-10A) | IC50 (TNBC cell lines) | IC50 (MDA-MB-436) | inhibition at 5 µg/mL (MDA-MB-231; Homo sapiens) | inhibition at 5 µg/mL (SUM-159; Homo sapiens) | inhibitory effect on MCF-7 (in words) (MCF-7) | inhibition of STAT3 (in words) [1] | antimalarial HDP inhibitor (in words) [2] | inhibition at 5 µg/mL (MCF-7) |
| --- | --- | --- | --- | --- | --- | --- | --- | --- | --- | --- | --- | --- | --- | --- | --- | --- | --- | --- |
| CCc1ccc(S(=O)(=O)Nc2cc(SCC(=O)O)c(O)c3ccccc23)cc1 [Compound 2-1] | 13.3 µM | 3.19 µM | 4.36 µM | 30.8 µM | 14 µM | – | – | – | – | – | – | – | – | – | – | – | – | – |
| CC(=O)Oc1c(SCC(=O)O)cc(NS(=O)(=O)c2ccc(F)cc2)c2ccccc12 [Compound 2-3] | > 40 µM | 8.59 µM | 7.99 µM | > 40 µM | > 40 µM | – | – | – | – | – | – | – | – | – | – | – | – | – |
| COc1ccc(S(=O)(=O)Nc2cc3c(C(=O)O)c(C)oc3c3ccccc23)cc1 [Compound 2-5-COOH] | – | – | > 20 µM | > 20 µM | – | approximately 10 fold | ~24 µM | 24.2 µM | – | – | – | – | – | – | – | – | – | – |
| COC(=O)c1c(C)oc2c1cc(NS(=O)(=O)c1ccc(OC)cc1)c1ccccc12 [Compound 2-5] | > 40 µM | 2.95 µM | 3.12 µM | 2.91 µM | > 40 µM | – | – | – | no inhibitory activity | > 40 µM | 2 to 3 µM | 1.99 µM | 31% | 56.8% | no inhibitory effect; also recorded: no inhibitory activity | – | – | – |
| Cc1ccc(S(=O)(=O)Nc2cc(SCC(=O)O)c(O)c3ccccc23)cc1 [Compound 2-6] | 25 µM | 3.36 µM | 4.97 µM | 19.2 µM | > 40 µM | – | – | – | – | – | – | – | – | – | – | – | – | – |
| CC(C)c1ccc(S(=O)(=O)Nc2cc(SCC(=O)O)c(O)c3ccccc23)cc1 [Compound 2-7] | > 40 µM | 3.65 µM | 3.95 µM | > 40 µM | > 40 µM | – | – | – | – | – | – | – | – | – | – | – | – | – |
| CCOC(=O)c1c(C)oc2c1cc(NS(=O)(=O)c1ccc(OC)cc1)c1ccccc12 [Compound 2-8] | 10.1 µM | 3.09 µM | 2.96 µM | 2.5 µM | > 40 µM | – | – | – | no inhibitory activity | > 40 µM | 2 to 3 µM | 2.8 µM | 62.9% | 61.8% | no inhibitory effect; also recorded: no inhibitory activity | – | – | – |
| COc1ccc(S(=O)(=O)Nc2cc(Cl)c(O)c3ccccc23)cc1 [Compound 2-9] | > 40 µM | 4.61 µM | 6.22 µM | 18.1 µM | > 40 µM | – | – | – | – | – | – | – | – | – | – | inhibition | – | – |
| CCOc1ccc(S(=O)(=O)Nc2cc(Cl)c(O)c3ccccc23)cc1 [Compound 2-11] | > 40 µM | 5.72 µM | 6.92 µM | > 40 µM | > 40 µM | – | – | – | – | – | – | – | – | – | – | – | inhibitor | – |
| CCCCOC(=O)c1c(C)oc2c1cc(NS(=O)(=O)c1ccc(OC)cc1)c1ccccc12 [Compound 3-3] | – | – | 3.25 µM | 8.66 µM | – | – | – | – | – | > 40 µM | – | 3.36 µM | 51.1% | 42.1% | – | – | – | 29.7% |
| CCOc1ccc(S(=O)(=O)Nc2cc3c(C(=O)OC)c(C)oc3c3ccccc23)cc1 [Compound 3-9] | – | – | 2.68 µM | 2.66 µM | – | – | – | – | – | > 40 µM | – | 2.08 µM | 63% | 60.8% | – | – | – | 24.3% |
| COC(=O)c1c(C(C)(C)C)oc2c1cc(NS(=O)(=O)c1ccc(OC)cc1)c1ccccc12 [Compound 3-12] | – | – | 11.9 µM | 11.5 µM | – | – | – | – | – | > 40 µM | – | 7.13 µM | 71.4% | 90.4% | – | – | – | 76.3% |
| CCOc1ccc(S(=O)(=O)Nc2cc3c(C(C)=O)c(C)oc3c3ccccc23)cc1 [Compound 3-17] | – | – | 1.77 µM | 1.94 µM | – | – | – | – | – | 0.66 µM | – | ~0.01 µM | 68.6% | 61% | – | – | – | 40.5% |
| CCOC(=O)c1c(C)oc2c1cc(NS(=O)(=O)c1ccc(OCC)cc1)c1ccccc12 [Compound 3-37] | – | – | 5.49 µM | 4.09 µM | – | – | – | – | – | > 40 µM | – | 1.41 µM | 59.7% | 66.8% | – | – | – | 42.5% |
| COc1ccc(S(=O)(=O)Nc2cc(SCC(=O)O)c(O)c3ccccc23)cc1 [Compound C10] | 10.6 µM | 2.3 µM | – | – | – | – | – | – | – | – | – | – | – | – | – | – | – | – |
| COc1ccc(-c2oc3c(CCC(C)(C)O)c(O)cc(O)c3c(=O)c2O)cc1 [IC-163, reference compound] | > 40 µM | > 40 µM | > 40 µM | > 40 µM | > 40 µM | – | – | – | – | – | – | – | – | – | – | – | – | – |
